Assay results published in ChEMBL document CHEMBL5500385, “Macrocyclization strategy for improving candidate profiles in medicinal chemistry” (Eur J Med Chem, 2024).

Columns and labels:
[1] = biological target: T1, Peptidyl-prolyl cis-trans isomerase FKBP4 (Homo sapiens, UniProt Q02790)
T1 sequence (Q02790 whole entry): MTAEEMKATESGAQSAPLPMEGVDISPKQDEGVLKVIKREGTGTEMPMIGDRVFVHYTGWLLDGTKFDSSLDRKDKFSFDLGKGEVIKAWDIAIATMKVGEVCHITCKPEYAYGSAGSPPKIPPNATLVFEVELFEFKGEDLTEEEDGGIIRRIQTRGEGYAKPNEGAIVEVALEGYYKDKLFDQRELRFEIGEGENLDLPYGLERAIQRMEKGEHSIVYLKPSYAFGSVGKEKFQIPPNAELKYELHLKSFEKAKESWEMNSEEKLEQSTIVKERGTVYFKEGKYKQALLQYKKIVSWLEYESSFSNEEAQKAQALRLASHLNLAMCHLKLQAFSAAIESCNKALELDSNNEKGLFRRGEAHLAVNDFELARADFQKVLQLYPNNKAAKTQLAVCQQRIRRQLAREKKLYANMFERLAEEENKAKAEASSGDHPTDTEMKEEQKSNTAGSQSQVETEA
Description: Binding affinity to FKBP52 (unknown origin) assessed as inhibition constant by fluorescence polarization assay

[2] = in vitro; details: human, liver microsomes
[3] = biological target: Plasminogen (Homo sapiens, UniProt P00747)
Description: Binding affinity to plasmin (unknown origin) assessed as inhibition constant

[4] = biological target: Prothrombin (Homo sapiens, UniProt P00734)
Description: Binding affinity to thrombin (unknown origin) assessed as inhibition constant

[5] = biological target: Calcitonin gene-related peptide type 1 receptor (Homo sapiens, UniProt O60894+Q16602)
Description: Inhibition of CGRP (unknown origin)

[6] = biological target: T1, Peptidyl-prolyl cis-trans isomerase FKBP4; remark: listed apart in the source
Description: Binding affinity to FKBP52 (unknown origin) assessed as dissociation constant by fluorescence polarization assay

[7] = biological target: Tyrosine-protein kinase JAK2 (Homo sapiens, UniProt O60674)
Description: Inhibition of JAK2 (unknown origin)

[8] = test system: HEL; experiment: cells; details: Homo sapiens
Description: Antiproliferative activity against human HEL cells assessed as reduction in cell growth

[9] = test system: SET-2; experiment: cells; details: Homo sapiens
Description: Antiproliferative activity against human SET2 cells assessed as reduction in cell viability

[10] = biological target: T2, ATP-citrate synthase (Homo sapiens, UniProt P53396)
T2 sequence (P53396 whole entry): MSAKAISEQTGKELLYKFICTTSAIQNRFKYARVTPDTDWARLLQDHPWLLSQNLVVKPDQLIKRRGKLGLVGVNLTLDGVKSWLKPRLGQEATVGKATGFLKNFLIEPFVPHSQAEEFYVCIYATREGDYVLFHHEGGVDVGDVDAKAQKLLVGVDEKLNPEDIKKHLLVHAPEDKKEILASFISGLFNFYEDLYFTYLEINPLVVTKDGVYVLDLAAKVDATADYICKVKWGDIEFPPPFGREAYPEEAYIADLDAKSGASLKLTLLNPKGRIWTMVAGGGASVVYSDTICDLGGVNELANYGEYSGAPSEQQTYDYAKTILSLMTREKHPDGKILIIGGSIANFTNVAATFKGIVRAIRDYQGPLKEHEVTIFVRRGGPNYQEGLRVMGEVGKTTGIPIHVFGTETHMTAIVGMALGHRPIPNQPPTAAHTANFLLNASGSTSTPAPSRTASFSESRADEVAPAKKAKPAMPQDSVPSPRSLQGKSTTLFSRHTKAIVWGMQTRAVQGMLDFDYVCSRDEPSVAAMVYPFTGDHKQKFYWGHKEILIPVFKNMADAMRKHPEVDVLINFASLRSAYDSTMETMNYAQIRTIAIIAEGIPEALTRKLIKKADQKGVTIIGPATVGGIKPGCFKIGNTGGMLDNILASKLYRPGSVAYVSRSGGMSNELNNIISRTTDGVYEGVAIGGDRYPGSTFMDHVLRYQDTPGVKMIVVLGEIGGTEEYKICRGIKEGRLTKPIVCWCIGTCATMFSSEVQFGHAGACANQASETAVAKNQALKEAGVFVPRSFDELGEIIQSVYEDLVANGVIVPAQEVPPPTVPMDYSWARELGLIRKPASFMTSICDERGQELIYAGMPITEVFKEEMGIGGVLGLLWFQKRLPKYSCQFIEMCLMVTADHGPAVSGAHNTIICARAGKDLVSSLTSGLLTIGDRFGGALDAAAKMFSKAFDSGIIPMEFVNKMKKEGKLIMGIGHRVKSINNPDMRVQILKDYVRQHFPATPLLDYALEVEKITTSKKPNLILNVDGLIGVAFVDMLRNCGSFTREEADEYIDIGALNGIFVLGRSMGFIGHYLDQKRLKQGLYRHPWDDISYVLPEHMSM
Description: Binding affinity to ATP citrate lyase (unknown origin) assessed as dissociation constant

[11] = biological target: T2, ATP-citrate synthase; remark: listed apart in the source
Description: Inhibition of ATP citrate lyase (unknown origin)

[12] = biological target: T3, Muscleblind-like protein 1 (Homo sapiens, UniProt Q9NR56)
T3 sequence (Q9NR56 whole entry): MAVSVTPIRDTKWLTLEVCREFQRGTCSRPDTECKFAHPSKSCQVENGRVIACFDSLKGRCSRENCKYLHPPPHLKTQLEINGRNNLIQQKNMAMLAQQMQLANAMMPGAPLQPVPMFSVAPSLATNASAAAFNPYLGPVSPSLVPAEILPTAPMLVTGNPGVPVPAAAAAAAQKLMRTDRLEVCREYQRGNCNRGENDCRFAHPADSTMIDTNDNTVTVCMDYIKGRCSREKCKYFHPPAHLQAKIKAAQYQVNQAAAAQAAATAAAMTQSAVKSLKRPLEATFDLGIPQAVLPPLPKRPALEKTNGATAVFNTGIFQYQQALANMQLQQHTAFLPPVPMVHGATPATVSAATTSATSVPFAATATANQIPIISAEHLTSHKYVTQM
Description: Binding affinity to MBNL1 (unknown origin) (1 to 272 residues) assessed as dissociation constant

Sequence of Plasminogen (P00747 97-580 limits assumed): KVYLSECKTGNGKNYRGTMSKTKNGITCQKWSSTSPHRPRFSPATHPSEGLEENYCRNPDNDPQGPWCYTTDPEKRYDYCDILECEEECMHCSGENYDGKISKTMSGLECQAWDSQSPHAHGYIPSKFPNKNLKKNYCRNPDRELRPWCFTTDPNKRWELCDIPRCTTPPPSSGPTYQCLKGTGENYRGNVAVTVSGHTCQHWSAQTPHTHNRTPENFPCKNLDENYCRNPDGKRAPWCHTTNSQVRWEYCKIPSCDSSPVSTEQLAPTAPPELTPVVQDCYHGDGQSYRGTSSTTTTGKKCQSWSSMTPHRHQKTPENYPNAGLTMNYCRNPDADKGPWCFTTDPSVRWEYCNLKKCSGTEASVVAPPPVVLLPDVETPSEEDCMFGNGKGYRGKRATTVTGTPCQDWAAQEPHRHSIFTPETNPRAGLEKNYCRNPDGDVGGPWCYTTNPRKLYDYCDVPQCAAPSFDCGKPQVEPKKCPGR
Sequence of Plasminogen (P00747 581-810 limits assumed): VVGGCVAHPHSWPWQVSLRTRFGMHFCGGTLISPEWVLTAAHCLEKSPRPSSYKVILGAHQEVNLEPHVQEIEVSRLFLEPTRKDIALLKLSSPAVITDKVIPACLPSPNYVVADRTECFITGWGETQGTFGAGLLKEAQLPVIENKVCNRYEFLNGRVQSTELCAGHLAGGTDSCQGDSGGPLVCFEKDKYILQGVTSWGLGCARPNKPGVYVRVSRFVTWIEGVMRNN
Sequence of Tyrosine-protein kinase JAK2 (O60674 whole entry): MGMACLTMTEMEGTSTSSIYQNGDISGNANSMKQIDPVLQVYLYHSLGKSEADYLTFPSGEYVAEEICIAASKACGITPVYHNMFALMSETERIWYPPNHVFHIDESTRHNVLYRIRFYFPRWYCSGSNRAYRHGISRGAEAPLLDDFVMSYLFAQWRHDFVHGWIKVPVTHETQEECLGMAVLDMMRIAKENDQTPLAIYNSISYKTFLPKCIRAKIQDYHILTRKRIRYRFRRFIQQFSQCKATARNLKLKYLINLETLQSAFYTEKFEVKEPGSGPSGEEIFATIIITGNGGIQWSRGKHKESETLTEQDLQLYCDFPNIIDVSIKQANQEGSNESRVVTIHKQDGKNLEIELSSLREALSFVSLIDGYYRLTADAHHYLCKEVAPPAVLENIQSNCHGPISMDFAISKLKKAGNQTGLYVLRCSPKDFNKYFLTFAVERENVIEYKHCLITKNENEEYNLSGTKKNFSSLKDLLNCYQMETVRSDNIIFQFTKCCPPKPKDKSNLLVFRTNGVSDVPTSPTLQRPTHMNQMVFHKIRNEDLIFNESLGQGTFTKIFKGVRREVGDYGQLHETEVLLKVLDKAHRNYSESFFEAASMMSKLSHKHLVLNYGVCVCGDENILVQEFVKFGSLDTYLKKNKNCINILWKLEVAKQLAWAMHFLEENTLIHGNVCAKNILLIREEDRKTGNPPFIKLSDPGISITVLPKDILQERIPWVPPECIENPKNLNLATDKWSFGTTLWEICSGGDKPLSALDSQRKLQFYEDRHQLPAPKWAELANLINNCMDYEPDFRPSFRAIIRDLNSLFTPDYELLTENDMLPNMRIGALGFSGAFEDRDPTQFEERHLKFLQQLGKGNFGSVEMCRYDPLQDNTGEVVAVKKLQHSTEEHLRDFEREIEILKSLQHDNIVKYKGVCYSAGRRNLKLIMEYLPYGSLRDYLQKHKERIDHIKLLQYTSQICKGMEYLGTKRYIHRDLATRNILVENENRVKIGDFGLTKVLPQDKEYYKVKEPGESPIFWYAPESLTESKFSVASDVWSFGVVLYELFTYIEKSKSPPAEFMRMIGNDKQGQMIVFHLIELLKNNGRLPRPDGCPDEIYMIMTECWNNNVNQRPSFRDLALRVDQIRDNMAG
Sequence of Calcitonin gene-related peptide type 1 receptor (Q16602 whole entry, one chain of several): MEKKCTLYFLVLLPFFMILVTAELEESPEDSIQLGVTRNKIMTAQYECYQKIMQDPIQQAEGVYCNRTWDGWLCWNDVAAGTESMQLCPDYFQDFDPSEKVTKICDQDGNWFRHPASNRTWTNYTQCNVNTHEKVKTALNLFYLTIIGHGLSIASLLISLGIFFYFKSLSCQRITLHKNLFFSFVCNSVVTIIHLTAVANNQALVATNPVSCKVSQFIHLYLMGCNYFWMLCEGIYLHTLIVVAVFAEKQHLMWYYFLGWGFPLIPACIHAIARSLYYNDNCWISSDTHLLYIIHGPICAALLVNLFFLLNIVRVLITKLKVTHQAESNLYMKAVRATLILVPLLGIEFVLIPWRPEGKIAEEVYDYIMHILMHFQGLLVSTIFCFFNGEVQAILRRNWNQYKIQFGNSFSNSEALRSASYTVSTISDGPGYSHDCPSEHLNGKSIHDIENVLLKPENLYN

Structure (SMILES): COc1ccc(CC[C@@H](OC(=O)[C@@H]2CCCCN2C(=O)[C@H](c2cc(OC)c(OC)c(OC)c2)C2CCCCC2)c2cccc(OCCN3CCOCC3)c2)cc1OC
- Ki [1]: > 50 µM

Structure (SMILES): O=C1NCc2ccccc2-c2cc(c(F)cc2F)NS(=O)(=O)c2cc1cc(Cl)c2O
- CLint scaled [2]: 3.27 mL/min/kg

Structure (SMILES): COc1ccc(CC[C@@H](OC(=O)[C@@H]2CCCCN2C(=O)[C@H](c2cc(OC)c(OC)c(OC)c2)C2CCCCC2)c2cccc(OCC(=O)O)c2)cc1OC
- Ki [1]: > 50 µM

Structure (SMILES): N=C(N)c1ccc(CNC(=O)[C@H](Cc2cccc(C(=N)N)c2)NC(=O)[C@@H](CCCc2ccccc2)NS(=O)(=O)Cc2cccc(C(=O)O)c2)cc1
- Ki [3]: 0.81 nM
- Ki [4]: 667 nM

Structure (SMILES): Cc1cc(C[C@@H](NC(=O)c2cnc3c(c2)C[C@@]2(C3)C(=O)Nc3ncccc32)C(=O)N(C)C)cc2cn[nH]c12
- IC50 [5]: 10 nM

Structure (SMILES): COc1cccc([C@@H](CCc2ccc(OC)c(OC)c2)OC(=O)[C@@H]2CCCCN2C(=O)[C@H](c2cc(OC)c(OC)c(OC)c2)C2CCCCC2)c1
- Kd [6]: > 10 µM

Structure (SMILES): Cc1cnc2nc1Nc1cccc(c1)COC/C=C/COCc1cc(ccc1OCCN1CCCC1)N2
- IC50 [7]: 6 nM
- IC50 [8]: 3.06 µM
- IC50 [9]: 11.1 µM

Structure (SMILES): COC(=O)c1cc(Cl)c(O)c(S(=O)(=O)Nc2cc(-c3ccccc3)c(F)cc2F)c1
- Kd [10]: 128 nM
- IC50 [11]: 44 nM
- CLint scaled [2]: 372 mL/min/kg

Structure (SMILES): COc1ccc2nc3cc(Cl)ccc3c(NCCCCNc3nc(N)nc(N)n3)c2c1
- Kd [12]: 300 nM
